Laboratory results: patent US9682960B2 (priority 2013, dated 2017)
Several values for one entry are separate records, joined by “and”; a condition that tells them apart may be missing. Identical values can stand only once. Like-named read-outs stand apart in the source and are kept apart here.

Experiments:
Human Androgen Receptor = Human Androgen Receptor (Homo sapiens (Human), UniProt P10275); test: Androgen receptor assay: [3H]R1881 displacement, cytosol of HEK-293 cells transfected with hAR (hydroxylapatite assay); assay type: binding
Human Androgen Receptor, sequence (P10275 whole entry): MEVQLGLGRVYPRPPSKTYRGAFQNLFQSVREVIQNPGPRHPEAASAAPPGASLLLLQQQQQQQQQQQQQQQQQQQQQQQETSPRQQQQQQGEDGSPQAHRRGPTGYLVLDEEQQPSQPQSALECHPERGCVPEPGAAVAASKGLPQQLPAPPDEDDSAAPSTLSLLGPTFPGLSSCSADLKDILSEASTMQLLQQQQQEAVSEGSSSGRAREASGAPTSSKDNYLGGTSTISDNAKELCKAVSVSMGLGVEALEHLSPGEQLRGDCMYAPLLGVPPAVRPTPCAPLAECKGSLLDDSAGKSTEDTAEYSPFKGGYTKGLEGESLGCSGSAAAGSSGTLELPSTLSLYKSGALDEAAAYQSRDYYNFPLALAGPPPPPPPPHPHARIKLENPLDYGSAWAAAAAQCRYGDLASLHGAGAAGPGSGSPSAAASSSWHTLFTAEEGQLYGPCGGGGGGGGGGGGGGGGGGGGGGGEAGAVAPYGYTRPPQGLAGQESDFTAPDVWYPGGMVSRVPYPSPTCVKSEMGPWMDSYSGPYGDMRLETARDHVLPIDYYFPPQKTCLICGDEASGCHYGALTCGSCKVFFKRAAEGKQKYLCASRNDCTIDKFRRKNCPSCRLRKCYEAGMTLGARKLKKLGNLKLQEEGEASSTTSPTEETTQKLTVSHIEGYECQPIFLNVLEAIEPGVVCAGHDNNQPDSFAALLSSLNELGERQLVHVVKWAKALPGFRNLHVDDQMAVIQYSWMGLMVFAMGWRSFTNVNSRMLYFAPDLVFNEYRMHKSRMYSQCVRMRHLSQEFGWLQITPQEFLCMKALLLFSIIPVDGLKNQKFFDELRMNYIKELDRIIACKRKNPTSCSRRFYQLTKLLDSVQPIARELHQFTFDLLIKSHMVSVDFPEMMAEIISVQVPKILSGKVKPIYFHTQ

[1] = test system: Shionogi mouse mammary carcinoma cells; test: In vitro androgenic/antiandrogenic activity: proliferation of Shionogi cells with or without DHT; assay type: cell-based
[2] = test system: castrated (CX) immature male rats; test: Systemic androgenic (agonistic) activity in orchidectomized (CX) immature male rats; assay type: in vivo, rat; details: 0.1 mg/rat/po, 7 days; for CX Agonistic activity % Stimulation Bulbo: bulbocavernosus muscles weight; for CX Agonistic activity % Stimulation SV: seminal vesicles weight; for CX Agonistic activity % Stimulation Prostate: ventral prostate weight
Protocol: Immature male rats (Crl:CD(SD)Br) 22 to 24-day old weighting 60-80 g at start of treatment were obtained from Charles-River, Inc. (St-Constant, Quebec, Canada) and housed up to 5 per cage in plastic bins in a temperature (23±1° C.)- and light (12 h light/day, lights on at 7 h15)-controlled environment. The rats were fed rodent chow and tap water ad libitum. […] The day following their arrival, the designed animals were orchidectomized (CX) under Isoflurane anesthesia (Study Day 1) via the scrotal route and were then randomly assigned to groups of 3 to 5 animals. At the time of orchidectomy, one silastic implant of dihydrotestosterone (DHT; 1 cm length of pure DHT in silastic tubing having inner and outer diameter of 0.078 and 0.125 inches, respectively), was inserted subcutaneously in the dorsal area of animals assigned to the evaluation of antiandrogenic activity. In the case of intact animal experiments, the orchidectomy and the silastic implant installation are omitted.
Tested compounds were administered orally once daily for 7 days from Study Day 2 to Study Day 8 at doses generally ranging from 0.1 and 0.5 mg/animal. Compounds were either solubilized in dimethylsulfoxide (DMSO, 10% final concentration) and were administered as a solution/suspension in 0.9% NaCl-1% gelatin or were administered as suspensions in 0.4% aqueous methylcellulose. Animals of the control groups received the corresponding vehicle alone during the 7-day period. Some animals were treated with the antiandrogen Flutamide or Casodex as reference. The animals under isoflurane anesthesia were killed by cervical dislocation on day 9 of the study, approximately 24 h after the last dosing. The ventral prostate, seminal vesicles and bulbocavernosus muscles were rapidly dissected and weighed.
For calculations with intact animals, control DHT is replaced by control intact and the % stimulation is subtracted by 100%. W is the weight of the prostate, seminal vesicles or bulbocavernosus muscles. Discussion

[3] = relative binding affinity, R1881 = 100, transfected cells
[4] = relative binding affinity, R1881 = 100, […]
[5] = Mus musculus, read-out: Shionogi Antiandrogenic Activity IC50, DHT (0.3 nM)-stimulated cell number

Structure (SMILES): CC1(C)C(=O)N(c2ccc(C#N)c(C(F)(F)F)c2)C(=S)N1CCCOc1ccc(CN2CCC(O)C2)cc1 (stereo not drawn) [EM-7365, reference compound]
- Human Androgen Receptor Binding RBA (%) R1881 = 100 (Human Androgen Receptor; [3]): 24%
- IC50 ([1]; DHT (0.3 nM)-stimulated cell number, read-out: Shionogi Antiandrogenic Activity IC50): 6 nM

Structure (SMILES): CC1(C)C(=O)N(c2ccc(C#N)c(C(F)(F)F)c2)C(=S)N1CCCOc1ccc(-c2cccnc2)cc1 [EM-8840]
- Human Androgen Receptor Binding RBA (%) R1881 = 100 (Human Androgen Receptor; [4]): 1090 ± 500 (n = 2) %
- IC50 [1, 5]: 24 ± 6 nM

Structure (SMILES): CC1(C)C(=O)N(c2ccc(C#N)c(C(F)(F)F)c2)C(=S)N1CCCOc1ccc(-c2ccncc2)cc1 [EM-8841]
- Human Androgen Receptor Binding RBA (%) R1881 = 100 (Human Androgen Receptor; [4]): 1200 ± 330 (n = 2) %
- IC50 [1, 5]: 73 ± 5 nM

Structure (SMILES): CC1(C)C(=O)N(c2ccc(C#N)c(C(F)(F)F)c2)C(=S)N1CCCOc1ccc(-c2ccncc2)c(F)c1 [EM-8851]
- Human Androgen Receptor Binding RBA (%) R1881 = 100 (Human Androgen Receptor; [3]): 3310% and 3310 ± 1780 (n = 2) %
- IC50 [1, 5]: 77 ± 20 nM

Structure (SMILES): CC1(C)C(=O)N(c2ccc(C#N)c(C(F)(F)F)c2)C(=S)N1CCCOc1cccc(-c2ccncc2)c1 [EM-8871]
- Human Androgen Receptor Binding RBA (%) R1881 = 100 (Human Androgen Receptor; [4]): 558 ± 102 (n = 2) %
- IC50 [1, 5]: 66 nM

Structure (SMILES): CC1(C)C(=O)N(c2ccc(C#N)c(C(F)(F)F)c2)C(=S)N1CCCOc1ccc(-c2ccncc2)cc1F [EM-8872]
- Human Androgen Receptor Binding RBA (%) R1881 = 100 (Human Androgen Receptor; [4]): 723 ± 59 (n = 2) %
- IC50 [1, 5]: 36 nM

Structure (SMILES): CC1(C)C(=O)N(c2ccc(C#N)c(C(F)(F)F)c2)C(=S)N1CCCOc1ccc(-c2ccncc2)c(Cl)c1 [EM-8888]
- Human Androgen Receptor Binding RBA (%) R1881 = 100 (Human Androgen Receptor; [3]): 1880 ± 1040 (n = 2) %
- IC50 ([1]; Mus musculus, DHT (0.3 nM)-stimulated cell number, read-out: Shionogi Antiandrogenic Activity IC50): 111 nM

Structure (SMILES): CC1(C)C(=O)N(c2ccc(C#N)c(C(F)(F)F)c2)C(=S)N1CCCOc1ccc(-c2ccncc2)c(C(F)(F)F)c1 [EM-8890]
- Human Androgen Receptor Binding RBA (%) R1881 = 100 (Human Androgen Receptor; [3]): 59 ± 25 (n = 2) %
- IC50 [1, 5]: 13.2 nM

Structure (SMILES): CC1(C)C(=O)N(c2ccc(C#N)c(C(F)(F)F)c2)C(=S)N1CCCOc1ccc(-c2ccncc2)cc1C(F)(F)F [EM-8900]
- Human Androgen Receptor Binding RBA (%) R1881 = 100 (Human Androgen Receptor; [4]): 130 ± 60 (n = 2) %
- IC50 [1, 5]: 2.6 to 4.3 nM
- stimulation at 10^−7M on basal Shionogi cell proliferation (in words) ([1]; basal (no DHT), 10^−7M): none of these compounds has any activity
- IC50 ([1]; read-out: Shionogi Antiandrogenic Activity IC50, DHT (0.3 nM)-stimulated cell number): 3.8 nM

Structure (SMILES): Cc1c(N2C(=O)N(CCCOc3ccc(-c4ccncc4)cc3F)C(C)(C)C2=O)ccc(C#N)c1F [EM-9204]
- Human Androgen Receptor Binding RBA (%) R1881 = 100 (Human Androgen Receptor; [3]): 22%

Structure (SMILES): Cc1c(N2C(=O)N(CCCOc3ccc(-c4cc[n+]([O-])cc4)c(F)c3)C(C)(C)C2=O)ccc(C#N)c1F [EM-9208]
- Human Androgen Receptor Binding RBA (%) R1881 = 100 (Human Androgen Receptor; [3]): 2.2%

Structure (SMILES): CC1(C)C(=O)N(c2ccc(C#N)c(Cl)c2)C(=O)N1CCCOc1ccc(-c2cc[n+]([O-])cc2)cn1 [EM-9225]
- Human Androgen Receptor Binding RBA (%) R1881 = 100 (Human Androgen Receptor): 0.8%

Structure (SMILES): CC1(C)C(=O)N(c2ccc(C#N)c(Cl)c2)C(=O)N1CCCOc1ccc(-c2ccncc2)cc1Cl.Cl [EM-9287]
- Human Androgen Receptor Binding RBA (%) R1881 = 100 (Human Androgen Receptor; [4]): 125 ± 9 (n = 3) %

Structure (SMILES): CC1(C)C(=O)N(c2ccc(C#N)c(Cl)c2)C(=O)N1CCCOc1ccc(-c2cc[n+]([O-])cc2)cc1Cl.Cl [EM-9288]
- Human Androgen Receptor Binding RBA (%) R1881 = 100 (Human Androgen Receptor; [4]): 24 ± 8 (n = 2) %

Structure (SMILES): Cc1c(N2C(=O)N(CCCCc3ccc(-c4ccncc4)cc3)C(C)(C)C2=O)ccc(C#N)c1Cl [EM-9336]
- Human Androgen Receptor Binding RBA (%) R1881 = 100 (Human Androgen Receptor; [4]): 32.3%
- CX Agonistic activity % Stimulation Bulbo [2]: 59%
- CX Agonistic activity % Stimulation SV [2]: 8%
- CX Agonistic activity % Stimulation Prostate [2]: 27%

Structure (SMILES): Cc1c(N2C(=O)N(CCOc3ccc(-c4ccncc4)cc3)C(C)(C)C2=O)ccc(C#N)c1Cl [EM-9337]
- Human Androgen Receptor Binding RBA (%) R1881 = 100 (Human Androgen Receptor; [4]): 28.3%
- CX Agonistic activity % Stimulation Bulbo [2]: 95%
- CX Agonistic activity % Stimulation SV [2]: 17%
- CX Agonistic activity % Stimulation Prostate [2]: 33%

Structure (SMILES): Cc1c(N2C(=O)N(CCOc3ccc(-c4cc[n+]([O-])cc4)cc3)C(C)(C)C2=O)ccc(C#N)c1Cl [EM-9339]
- Human Androgen Receptor Binding RBA (%) R1881 = 100 (Human Androgen Receptor; [4]): 4.0%
- CX Agonistic activity % Stimulation Bulbo [2]: 68%
- CX Agonistic activity % Stimulation SV [2]: 12%
- CX Agonistic activity % Stimulation Prostate [2]: 27%

Structure (SMILES): CC(C)(O)C(=O)Nc1ccc([N+](=O)[O-])c(C(F)(F)F)c1 [OH-FLU, hydroxyflutamide, reference compound]
- Human Androgen Receptor Binding RBA (%) R1881 = 100 (Human Androgen Receptor; [3]): 0.21 ± 0.09 (n = 3) %
- Human Androgen Receptor Binding RBA (%) R1881 = 100 (Human Androgen Receptor; relative binding affinity, R1881 = 100, transfected cells, listed as hydroxyflutamide): 0.21%
